Results from patent EP0234946A2, “New compounds” (THE WELLCOME FOUNDATION LIMITED, priority 1986, dated 1987).

Molecular target: T1, angiotensin converting enzyme (Cavia porcellus, UniProt H0UWL7)
T1 construct: from tissue; host or cells: guinea pig ileum
T1 sequence (H0UWL7 33-1302): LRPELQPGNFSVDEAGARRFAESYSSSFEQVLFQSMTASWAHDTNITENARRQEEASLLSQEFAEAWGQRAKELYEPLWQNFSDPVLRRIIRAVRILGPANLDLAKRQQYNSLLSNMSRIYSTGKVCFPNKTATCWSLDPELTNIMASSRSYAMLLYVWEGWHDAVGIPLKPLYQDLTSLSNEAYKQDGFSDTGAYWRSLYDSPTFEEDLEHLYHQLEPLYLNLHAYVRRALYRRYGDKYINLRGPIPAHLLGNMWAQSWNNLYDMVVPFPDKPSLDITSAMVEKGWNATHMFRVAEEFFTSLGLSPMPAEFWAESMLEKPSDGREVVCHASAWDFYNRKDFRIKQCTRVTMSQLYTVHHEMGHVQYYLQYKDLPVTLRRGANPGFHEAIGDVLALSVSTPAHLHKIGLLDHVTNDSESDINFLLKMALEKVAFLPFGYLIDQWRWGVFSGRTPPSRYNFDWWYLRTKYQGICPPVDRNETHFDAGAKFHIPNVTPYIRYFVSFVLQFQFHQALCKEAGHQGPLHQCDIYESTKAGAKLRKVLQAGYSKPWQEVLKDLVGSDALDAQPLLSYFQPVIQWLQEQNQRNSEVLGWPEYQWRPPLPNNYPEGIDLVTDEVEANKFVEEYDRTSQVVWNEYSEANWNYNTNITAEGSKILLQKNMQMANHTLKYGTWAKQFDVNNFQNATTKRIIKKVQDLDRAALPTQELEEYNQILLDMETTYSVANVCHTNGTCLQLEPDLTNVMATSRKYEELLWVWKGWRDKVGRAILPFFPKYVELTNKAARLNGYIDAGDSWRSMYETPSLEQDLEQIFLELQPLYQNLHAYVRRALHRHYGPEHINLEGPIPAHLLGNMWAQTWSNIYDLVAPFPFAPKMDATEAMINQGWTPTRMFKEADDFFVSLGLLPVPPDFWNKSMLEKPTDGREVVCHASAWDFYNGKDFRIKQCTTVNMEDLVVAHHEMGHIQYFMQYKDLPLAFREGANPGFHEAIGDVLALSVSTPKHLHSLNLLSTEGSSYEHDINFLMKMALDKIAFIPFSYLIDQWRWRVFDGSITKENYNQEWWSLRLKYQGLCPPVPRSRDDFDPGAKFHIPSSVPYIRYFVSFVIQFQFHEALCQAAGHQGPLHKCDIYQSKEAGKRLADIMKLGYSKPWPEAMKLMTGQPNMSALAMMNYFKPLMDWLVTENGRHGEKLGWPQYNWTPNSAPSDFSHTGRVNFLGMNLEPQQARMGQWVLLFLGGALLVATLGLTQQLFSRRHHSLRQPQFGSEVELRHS
Assay: angiotensin converting enzyme inhibition in guinea pig ileum (inhibition of contractile responses to Angiotensin I)
Conditions: dose-dependent inhibition of contractile responses to Angiotensin I, read-out: EC50 (the source's name)
Excerpt: (b) ACE inhibition in vitro
In an assay for angiotensin converting enzyme inhibition in guinea pig ileum, dose-dependent inhibition of contractile responses to Angiotensin I gave the following results: […]

| IC50 | SMILES |
| --- | --- |
| 10.3 nM | CC(C)NCC(O)COc1cccc2ccc(C(=O)NCCCC[C@H](NC(C)C(=O)N3CCC[C@H]3C(=O)O)C(=O)O)cc12 (stereo partly drawn) [Example 3, N-(1(S)-Carboxy-5-[8-(2(R,S)-hydroxy-3-isopropylaminopropoxy)naphth-2--ylcarboxamido]pentyl)-(R,S)-alanyl-(S)-proline bistrifluoroacetate] |
| 13.5 nM | CC(C)NCC(O)COc1cccc2cc(C(=O)NCCCC[C@H](NC(C)C(=O)N3CCC[C@H]3C(=O)O)C(=O)O)ccc12 (stereo partly drawn) [Example 2, N-(1(S)-Carboxy-5-[5-(2,(R,S)-hydroxy-3-isopropylaminopropoxy)naphth-2-ylcarboxamido]pentyl)-(R,S)-alanyl-(S)-proline bistrifluoroacetate] |
| 1.4 nM | CC(C)NC[C@H](O)COc1cccc2[nH]c(C(=O)NCCCC[C@H](N[C@@H](C)C(=O)N3CCC[C@H]3C(=O)O)C(=O)O)cc12 [Example 1, N-(1(S)-Carboxy-5-[4-(2(S)-hydroxy-3-isopropylaminopropoxy)-1H-indol-2-ylcarboxamido]pentyl)-(S)-alanyl-(S)-proline] |
